Experimental data reported in ChEMBL document CHEMBL3232992, “Synthesis and the hepatoprotective activity of dibenzocyclooctadiene lignan derivatives” (2014).

These molecules were tested on L02 (assay: Hepatoprotective activity against carbon tetrachloride-induced toxicity in human HL-7702 cells assessed as increase of cell survival rate at 0.2 ug/ul pretreated for 12 hrs before carbon tetrachloride addition by MTS assay relative to control).
Format: functional

Compound	Survival
COc1cc2c(c(O)c1OC)-c1c(cc(OC)c(OC)c1OC)C[C@@H](C)[C@@H](C)C2 [SCHISANHENOL]	48.1%
COc1c(I)c2c(c(OC)c1OC)-c1c(c(I)c(OC)c(OC)c1OC)C[C@](C)(O)[C@@H](C)C2	45%
COc1cc2c(c(OC)c1OC)-c1c(cc(OC)c(OC)c1OC(C)=O)C[C@H](C)[C@H](C)C2	65%
COc1c(O)c2c(c(Cl)c1OC)C[C@H](C)[C@H](C)Cc1c(Cl)c(OC)c(OC)c(OC)c1-2	98.5%
COc1c(Br)c2c(c(OC)c1OC)-c1c(c(OC)c(OC)c(OC)c1OC)C[C@](C)(O)[C@@H](C)C2	73.6%
COc1c(I)c2c(c(OC)c1OC)-c1c(c(I)c3c(c1OC)OCO3)C[C@H](C)[C@H](C)C2	90%
COC1=C(OC)C(=O)C2=C(C[C@H](C)[C@H](C)Cc3cc(OC)c(OC)c(OC)c32)C1=O	85.5%
COC1=C(OC)C(OC(C)=O)C2=C(C[C@H](C)[C@H](C)Cc3cc(OC)c(OC)c(OC)c32)C1=O (stereo partly specified)	52.7%
COC1=C(OC)C23C(=CC1=O)CC(C)C2(C)Cc1cc(OC)c(OC)c(OC)c13 (stereo unspecified)	34.6%
COc1c(O)c2c(c(Br)c1OC)C[C@H](C)[C@H](C)Cc1c(Br)c(OC)c(OC)c(OC)c1-2	83%
COc1cc2c(c(OC)c1OC)-c1c(O)c(OC)c(OC)c(Cl)c1C[C@H](C)[C@H](C)C2	63%
COc1cc2c(c(OC)c1OC)-c1c(cc3c(c1OC)OCO3)C[C@H](C)[C@H](C)C2 [WUWEIZISU B]	42.8%
COc1c(Cl)c2c(c(OC)c1OC)-c1c(cc3c(c1OC)OCO3)C[C@H](C)[C@H](C)C2	43.4%
COc1c(Br)c2c(c(OC)c1OC)-c1c(cc3c(c1OC)OCO3)C[C@H](C)[C@H](C)C2	49.1%
COc1c(Cl)c2c(c(OC)c1OC)-c1c(c(Cl)c(OC)c(OC)c1OC)C[C@](C)(O)[C@@H](C)C2	44%
COc1cc2c(c(OC)c1OC)-c1c(c(Br)c(OC)c(OC)c1OC)C[C@](C)(O)[C@@H](C)C2	50%
COc1c(OC)c(C(C)=O)c2c(c1OC)-c1c(cc3c(c1OC)OCO3)C[C@H](C)[C@H](C)C2	44.4%
COc1c(Br)c2c(c(OC)c1OC)-c1c(c(Br)c3c(c1OC)OCO3)C[C@H](C)[C@H](C)C2	63.4%
COC(=O)c1cc(OC)c2c(c1-c1c(C(=O)OC)cc(OC)c3c1OCO3)OCO2 [BIFENDATE]	40.3%
COc1c(O)c2c(c(I)c1OC)C[C@H](C)[C@H](C)Cc1c(I)c(OC)c(OC)c(OC)c1-2	50%
COc1cc2c(c(OC)c1OC)-c1c(c(I)c(OC)c(OC)c1OC)C[C@](C)(O)[C@@H](C)C2	40.9%
COc1cc2c(c(OC)c1OC)-c1c(c(Cl)c(OC)c(OC)c1OC)C[C@](C)(O)[C@@H](C)C2	44%
COc1cc2c(c(OC)c1OC)-c1c(O)c(OC)c(OC)c(Br)c1C[C@H](C)[C@H](C)C2	82%
COc1c(Br)c2c(c(OC)c1OC)-c1c(c(Br)c(OC)c(OC)c1OC)C[C@](C)(O)[C@@H](C)C2	54.2%
COc1c(Cl)c2c(c(OC)c1OC)-c1c(c(Cl)c3c(c1OC)OCO3)C[C@H](C)[C@H](C)C2	51.8%
COc1cc2c(c(OC)c1OC)-c1c(cc(OC)c(OC)c1OC)C[C@](C)(O)[C@@H](C)C2 [SCHIZANDRIN]	43.3%
